Experimental data: PubChem BioAssay AID2060352 (Molecular Pharmacology Branch, DTP, NCI, 2025)
“And” between values parts separate entries of the source, which are not always exact repeats. Equal values may be shown once.

Test system: 616215-338-R-J1-PDC spheroid with HUVEC/MSC, viability
Assay: Anticancer human tumor 616215-338-R-J1-PDC patient-derived colon adenocarcinoma cell line growth inhibition [TAK]
Conditions: for viability, T/C: stronger effect = lower value
Source text: Combinatorial screen of targeted agents with TAK-243 and ipatasertib in multi-cell type tumor spheroids
A high-throughput screen of multi-cell type tumor spheroids was designed to identify active combinations of targeted small molecules and TAK-243 or ipatasertib. Complex spheroids include a stromal component modeled by human endothelial cells (HUVEC) and fibroblasts modeled by human mesenchymal stem cells (MSCs). The concentration ranges selected for each drug and investigational agent were based upon clinically achievable concentrations if the clinical Cmax of the agent was known.
Compounds. The drugs and investigational agents: TAK-243 (785004), ipatasertib (767898), everolimus (733504), selumetinib (741078), bortezomib (756655), trametinib (758246), ixazomib (758254), vemurafenib (761431), dabrafenib (764134), sapanisertib (764658), alpelisib (765974), and copanlisib (816437), were obtained from the National Cancer Institute (NCI) Developmental Therapeutics Program Chemical Repository. The FDA-approved anticancer drug set is available from the NCI Developmental Therapeutics Program. […] The stock solutions were prepared in dimethyl sulfoxide (DMSO, Sigma-Aldrich, St. Louis, MO, cat. D2650) at 800-fold the tested concentration and stored at -70 degrees C prior to their use. All drugs and investigational agents were tested over a range starting from a high concentration at or near the clinical Cmax and decreasing in half-log increments. If the clinical Cmax for an agent had not been determined, the highest concentration tested was 10 microM.
NCI60 Cell Culture. NCI60 cell lines were obtained from the NCI Developmental Therapeutics Program Tumor Repository. For each lot of cells, the Repository performed Applied Biosystems AmpFLSTR Identifiler testing with PCR amplification to confirm consistency with the published Identifier STR profile for each cell line. Cells were kept in continuous culture for no more than 20 passages. The optimal seeding densities for each of the cell lines at each time point assessed were determined prior to performing the concentration response studies. Briefly, the NCI60 human tumor lines were grown as monolayers in RPMI 1640 medium supplemented with 10% FBS and 2 mmol/L L-glutamine.
An additional 2 lines were from the NCI60 cell line panel including melanomas, MALME-3M and SK-MEL-2. Pooled donor human umbilical vein endothelial cells (HUVEC, Lonza, cat. CC-2519) and human mesenchymal stem cells (hMSC, Lonza, cat. PT-2501) were purchased from Lonza (Walkersville, MD).
PDMR cell lines were grown in complete medium (DC medium): Dulbecco's modified Eagle's medium (DMEM)/F12 supplemented with 5% fetal bovine serum (FBS), 2 mM L-glutamine, 100 U/mL penicillin and 100 µg/ml streptomycin, 0.4 µg/ml hydrocortisone, 10 ng/ml epidermal growth factor (EGF) recombinant human protein, 24 µg/mL adenine, and 0.1 mg/mL primocin. During culture from frozen stock vials, PDMR cells were cultured in the same medium containing 10 µM Y-27632 (see Table 3). The PDCs were cultured in complete DMEM/F12 media without 10 microM Y-27632 dihydrochloride for at least two passages prior to the screen. The pooled donor HUVEC and hMSC were cultured in endothelial cell growth medium 2 (PromoCell, Heidelberg, Germany, cat. C-22011) and mesenchymal stem cell growth medium 2 (PromoCell, cat. C-28009), respectively. For all experiments, HUVEC and hMSC were used at passages </=5.
For the pre-screen, cell seeding densities were determined from a titration spanning the range from 5,000 to 313 cells per well. The mct-spheroids including 60% malignant cells, 25% HUVEC and 15% MSC dispensed as a mixture into U-bottom Ultra-Low Attachment 384-well plates (Corning, NY)
High-throughput Drug Combination Screening.
Prior to their inoculation into 384-well plates, malignant cells, HUVEC, and hMSC were removed from T flasks using TrypLE express (Thermo Fisher Scientific, cat. 12605036) and harvested by centrifugation for 5 min at 233 x g. […]
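Also: spheroids exposed to drugs for 7 days before readout.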

## Cn1cnc2c(F)c(Nc3ccc(Br)cc3Cl)c(C(=O)NOCCO)cc21 + CC(C)NCC(C(=O)N1CCN(c2ncnc3c2C(C)CC3O)CC1)c1ccc(Cl)cc1
Curve of first compound, second compound 0.3 µM
  IC50: 660 nM
Curve of first compound, second compound 0.949 µM
  IC50: 193 nM
Curve of first compound, second compound 3 µM
  IC50: 18.3 nM
Curve of first compound, second compound 9.49 µM
  IC50: < 9.49 nM
Curve of first compound, second compound 30 µM
  IC50: < 9.49 nM
Second compound 0.3 µM, first compound 0.00949 µM
  viability, T/C: 128%
Second compound 0.3 µM, first compound 0.03 µM
  viability, T/C: 145%
Second compound 0.3 µM, first compound 0.0949 µM
  viability, T/C: 134%
Second compound 0.3 µM, first compound 0.3 µM
  viability, T/C: 97.5%
Second compound 0.3 µM, first compound 0.949 µM
  viability, T/C: 28.6%
Second compound 0.3 µM, first compound 3 µM
  viability, T/C: 10.1%
Second compound 0.949 µM, first compound 0.00949 µM
  viability, T/C: 127%
Second compound 0.949 µM, first compound 0.03 µM
  viability, T/C: 110%
Second compound 0.949 µM, first compound 0.0949 µM
  viability, T/C: 68.7%
Second compound 0.949 µM, first compound 0.3 µM
  viability, T/C: 37.1%
Second compound 0.949 µM, first compound 0.949 µM
  viability, T/C: 16.3%
Second compound 0.949 µM, first compound 3 µM
  viability, T/C: 1.88%
Second compound 3 µM, first compound 0.00949 µM
  viability, T/C: 62.6%
Second compound 3 µM, first compound 0.03 µM
  viability, T/C: 39.6%
Second compound 3 µM, first compound 0.0949 µM
  viability, T/C: 26.2%
Second compound 3 µM, first compound 0.3 µM
  viability, T/C: 18.2%
Second compound 3 µM, first compound 0.949 µM
  viability, T/C: 7.02%
Second compound 3 µM, first compound 3 µM
  viability, T/C: 2.31%
Second compound 9.49 µM, first compound 0.00949 µM
  viability, T/C: 20.1%
Second compound 9.49 µM, first compound 0.03 µM
  viability, T/C: 16.6%
Second compound 9.49 µM, first compound 0.0949 µM
  viability, T/C: 12.3%
Second compound 9.49 µM, first compound 0.3 µM
  viability, T/C: 8.61%
Second compound 9.49 µM, first compound 0.949 µM
  viability, T/C: 3.42%
Second compound 9.49 µM, first compound 3 µM
  viability, T/C: 1.74%
Second compound 30 µM, first compound 0.00949 µM
  viability, T/C: 9.63%
Second compound 30 µM, first compound 0.03 µM
  viability, T/C: 9.43%
Second compound 30 µM, first compound 0.0949 µM
  viability, T/C: 6.77%
Second compound 30 µM, first compound 0.3 µM
  viability, T/C: 4.12%
Second compound 30 µM, first compound 0.949 µM
  viability, T/C: 1.89%
Second compound 30 µM, first compound 3 µM
  viability, T/C: 1.35%

## COc1c(OCCCN2CCOCC2)ccc2c3n(c(=NC(=O)c4cnc(N)nc4)nc12)CCN3
Compound 0.00316 µM
  viability, T/C: 108% and 106%
Compound 0.01 µM
  viability, T/C: 108% and 113%
Compound 0.0316 µM
  viability, T/C: 117% and 114%
Compound 0.1 µM
  viability, T/C: 57.7% and 54.2%
Compound 0.316 µM
  viability, T/C: 27.8% and 31.5%
Compound 1 µM
  viability, T/C: 17.4% and 16.5%
Curve of compound
  IC50: 129 nM and 118 nM
